Test results from PubChem BioAssay (NCI).
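The compound was tested at five concentrations on cells cultured in 96-well plates, with a 48-hour exposure period. TGI marks complete inhibition of growth.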

Key:
Experiment in all cases: NCI anticancer screen, dose series, 48 h
MOLT-4 leukemia = test system: MOLT-4 leukemia
COLO 205 colon = test system: COLO 205 colon
KM12 colon = test system: KM12 colon
RPMI-8226 leukemia = test system: RPMI-8226 leukemia
NCI-H522 lung = test system: NCI-H522 lung
SN12C renal = test system: SN12C renal
A498 renal = test system: A498 renal
XF 498 CNS = test system: XF 498 CNS
DMS 273 small cell lung = test system: DMS 273 small cell lung
KM20L2 colon = test system: KM20L2 colon
U251 CNS = test system: U251 CNS
M19-MEL melanoma = test system: M19-MEL melanoma
SNB-75 CNS = test system: SNB-75 CNS
MALME-3M melanoma = test system: MALME-3M melanoma
HOP-92 NSCLC = test system: HOP-92 NSCLC
HT29 colon = test system: HT29 colon
NCI-H226 lung = test system: NCI-H226 lung
UO-31 renal = test system: UO-31 renal
OVCAR-8 ovarian = test system: OVCAR-8 ovarian
OVCAR-3 ovarian = test system: OVCAR-3 ovarian
SF-268 CNS = test system: SF-268 CNS
NCI-H460 lung = test system: NCI-H460 lung
LOX IMVI melanoma = test system: LOX IMVI melanoma
HCT-15 colon = test system: HCT-15 colon
LXFL 529 NSCLC = test system: LXFL 529 NSCLC
SK-MEL-2 melanoma = test system: SK-MEL-2 melanoma
UACC-257 melanoma = test system: UACC-257 melanoma
M14 melanoma = test system: M14 melanoma
ACHN renal = test system: ACHN renal
CAKI-1 renal = test system: CAKI-1 renal
TK-10 renal = test system: TK-10 renal
DLD-1 colon = test system: DLD-1 colon
SNB-19 CNS = test system: SNB-19 CNS
A549 NSCLC = test system: A549 NSCLC
RXF 393 renal = test system: RXF 393 renal
NCI-H23 lung = test system: NCI-H23 lung
HL-60(TB) leukemia = test system: HL-60(TB) leukemia
SK-MEL-5 melanoma = test system: SK-MEL-5 melanoma
HOP-18 NSCLC = test system: HOP-18 NSCLC
HCT-116 colon = test system: HCT-116 colon
UACC-62 melanoma = test system: UACC-62 melanoma
OVCAR-4 ovarian = test system: OVCAR-4 ovarian
IGROV1 ovarian = test system: IGROV1 ovarian
K-562 leukemia = test system: K-562 leukemia
SK-OV-3 ovarian = test system: SK-OV-3 ovarian
CCRF-CEM leukemia = test system: CCRF-CEM leukemia
786-0 renal = test system: 786-0 renal
DMS 114 small cell lung = test system: DMS 114 small cell lung
HOP-62 NSCLC = test system: HOP-62 NSCLC
SK-MEL-28 melanoma = test system: SK-MEL-28 melanoma
SW-620 colon = test system: SW-620 colon
SR leukemia = test system: SR leukemia
SF-295 CNS = test system: SF-295 CNS
SNB-78 CNS = test system: SNB-78 CNS
EKVX NSCLC = test system: EKVX NSCLC
SF-539 CNS = test system: SF-539 CNS
HCC-2998 colon = test system: HCC-2998 colon

Q: Which TGI (MOLT-4 leukemia) does the source give for `Cc1ccccc1NC(=O)C(=O)c1c(O)c2ccc(O)cc2oc1=O` here?
A: Its TGI is over 100 µM.

Q: And the TGI (COLO 205 colon)?
A: Its TGI is over 100 µM.

Q: And the TGI (KM12 colon)?
A: The TGI was over 100 µM.

Q: What about the TGI (RPMI-8226 leukemia) of the same compound?
A: Its TGI is over 100 µM.

Q: What about the TGI (NCI-H522 lung) of the same compound?
A: Its TGI is over 100 µM.

Q: And the TGI (SN12C renal)?
A: Its TGI is over 100 µM.

Q: What about the TGI (A498 renal) of the same compound?
A: Its TGI is over 100 µM.

Q: What about the TGI (XF 498 CNS) of the same compound?
A: The TGI was over 100 µM.

Q: And the TGI (DMS 273 small cell lung)?
A: Its TGI is over 100 µM.

Q: What about the TGI (KM20L2 colon) of the same compound?
A: The TGI was over 100 µM.

Q: What about the TGI (U251 CNS) of the same compound?
A: The TGI was over 100 µM.

Q: And the TGI (M19-MEL melanoma)?
A: The TGI was over 100 µM.

Q: What about the TGI (SNB-75 CNS) of the same compound?
A: The TGI was over 100 µM.

Q: What about the TGI (MALME-3M melanoma) of the same compound?
A: The TGI was over 100 µM.

Q: What about the TGI (HOP-92 NSCLC) of the same compound?
A: Its TGI is over 100 µM.

Q: What about the TGI (HT29 colon) of the same compound?
A: Its TGI is over 100000 nM.

Q: What about the TGI (NCI-H226 lung) of the same compound?
A: The TGI was over 100 µM.

Q: What about the TGI (UO-31 renal) of the same compound?
A: The TGI was over 100 µM.

Q: And the TGI (OVCAR-8 ovarian)?
A: The TGI was over 100 µM.

Q: And the TGI (OVCAR-3 ovarian)?
A: Its TGI is over 100 µM.

Q: What about the TGI (SF-268 CNS) of the same compound?
A: Its TGI is over 100 µM.

Q: And the TGI (NCI-H460 lung)?
A: Its TGI is over 100 µM.

Q: What about the TGI (LOX IMVI melanoma) of the same compound?
A: The TGI was over 100 µM.

Q: And the TGI (HCT-15 colon)?
A: The TGI was over 100 µM.

Q: What about the TGI (LXFL 529 NSCLC) of the same compound?
A: Its TGI is over 100 µM.

Q: And the TGI (SK-MEL-2 melanoma)?
A: The TGI was over 100 µM.

Q: And the TGI (UACC-257 melanoma)?
A: Its TGI is over 100 µM.

Q: And the TGI (M14 melanoma)?
A: Its TGI is over 100 µM.

Q: And the TGI (ACHN renal)?
A: Its TGI is over 100 µM.

Q: What about the TGI (CAKI-1 renal) of the same compound?
A: Its TGI is over 100 µM.

Q: What about the TGI (TK-10 renal) of the same compound?
A: The TGI was over 100 µM.

Q: And the TGI (DLD-1 colon)?
A: The TGI was over 100 µM.

Q: And the TGI (SNB-19 CNS)?
A: Its TGI is over 100 µM.

Q: What about the TGI (A549 NSCLC) of the same compound?
A: The TGI was over 100 µM.

Q: And the TGI (RXF 393 renal)?
A: Its TGI is over 100 µM.

Q: And the TGI (NCI-H23 lung)?
A: The TGI was over 100 µM.

Q: What about the TGI (HL-60(TB) leukemia) of the same compound?
A: Its TGI is over 100 µM.

Q: What about the TGI (SK-MEL-5 melanoma) of the same compound?
A: Its TGI is over 100 µM.

Q: What about the TGI (HOP-18 NSCLC) of the same compound?
A: Its TGI is over 100 µM.

Q: What about the TGI (HCT-116 colon) of the same compound?
A: The TGI was over 100 µM.

Q: What about the TGI (UACC-62 melanoma) of the same compound?
A: Its TGI is over 100 µM.

Q: And the TGI (OVCAR-4 ovarian)?
A: Its TGI is over 100 µM.

Q: And the TGI (IGROV1 ovarian)?
A: The TGI was over 100 µM.

Q: What about the TGI (K-562 leukemia) of the same compound?
A: Its TGI is over 100 µM.

Q: What about the TGI (SK-OV-3 ovarian) of the same compound?
A: Its TGI is over 100 µM.

Q: What about the TGI (CCRF-CEM leukemia) of the same compound?
A: The TGI was over 100 µM.

Q: And the TGI (786-0 renal)?
A: The TGI was over 100 µM.

Q: And the TGI (DMS 114 small cell lung)?
A: The TGI was over 100 µM.

Q: And the TGI (HOP-62 NSCLC)?
A: The TGI was over 100 µM.

Q: What about the TGI (SK-MEL-28 melanoma) of the same compound?
A: Its TGI is over 100 µM.

Q: And the TGI (SW-620 colon)?
A: The TGI was over 100 µM.

Q: What does the source list for `CCC12C=CCN3CCC4(c5cc(C6(C(=O)OC)CCCCCc7c6[nH]c6ccccc76)c(OC)cc5N(C)C4C(O)(C(=O)OC)C1OC(C)=O)C32` (centres undefined)?
A: TGI (MOLT-4 leukemia): 9.19 µM; TGI (COLO 205 colon): 8.85 µM; TGI (KM12 colon): 5.93 µM; TGI (RPMI-8226 leukemia): 6.97 µM; TGI (SN12C renal): 12.8 µM; TGI (A498 renal): 7.39 µM; TGI (XF 498 CNS): 6.44 µM; TGI (KM20L2 colon): 4.76 µM; TGI (U251 CNS): 5.68 µM; TGI (M19-MEL melanoma): 6.93 µM; TGI (SNB-75 CNS): 7.8 µM; TGI (MALME-3M melanoma): 3.84 µM; TGI (SR leukemia): 7.65 µM; TGI (HOP-92 NSCLC): 4.76 µM; TGI (HT29 colon): 2060 nM; TGI (NCI-H226 lung): 6.65 µM; TGI (UO-31 renal): 7.25 µM; TGI (OVCAR-8 ovarian): 17.2 µM; TGI (OVCAR-3 ovarian): 15.5 µM; TGI (NCI-H460 lung): 9.92 µM; TGI (HCT-15 colon): 5.29 µM; TGI (LXFL 529 NSCLC): 5.54 µM; TGI (SK-MEL-2 melanoma): 3.17 µM; TGI (SF-295 CNS): 5.3 µM; TGI (M14 melanoma): 6.75 µM; TGI (SNB-78 CNS): 9.48 µM; TGI (ACHN renal): 3.3 µM; TGI (CAKI-1 renal): 7.46 µM; TGI (TK-10 renal): 5.5 µM; TGI (SNB-19 CNS): 12.1 µM; TGI (A549 NSCLC): 11.7 µM; TGI (RXF 393 renal): 3.52 µM; TGI (EKVX NSCLC): 14 µM; TGI (HL-60(TB) leukemia): 5.81 µM; TGI (HOP-18 NSCLC): 4.86 µM; TGI (HCT-116 colon): 13 µM; TGI (UACC-62 melanoma): 3.43 µM; TGI (OVCAR-4 ovarian): 12.3 µM; TGI (IGROV1 ovarian): 5.23 µM; TGI (SF-539 CNS): 4.63 µM; TGI (K-562 leukemia): > 100 µM; TGI (CCRF-CEM leukemia): 5.49 µM; TGI (HCC-2998 colon): 3.97 µM; TGI (786-0 renal): 4.89 µM; TGI (DMS 114 small cell lung): 7.09 µM; TGI (HOP-62 NSCLC): 13.2 µM; TGI (SK-MEL-28 melanoma): 4.35 µM; TGI (SW-620 colon): 17.5 µM
